Results on 24 compounds are retold here after US20250101041A1, “POSITIVE ALLOSTERIC MODULATORS OF THE MUSCARINIC ACETYLCHOLINE RECEPTOR M4” (Vanderbilt University, priority 2022, published 2025).

This test addresses T1, human mAChR M4 (Homo sapiens, UniProt P08173).
T1 construct: expressed in transfected cells; host or cells: CHO-K1 (American Type Culture Collection), stably expressing hM4 and Gqi5
T1 sequence (P08173 1-479): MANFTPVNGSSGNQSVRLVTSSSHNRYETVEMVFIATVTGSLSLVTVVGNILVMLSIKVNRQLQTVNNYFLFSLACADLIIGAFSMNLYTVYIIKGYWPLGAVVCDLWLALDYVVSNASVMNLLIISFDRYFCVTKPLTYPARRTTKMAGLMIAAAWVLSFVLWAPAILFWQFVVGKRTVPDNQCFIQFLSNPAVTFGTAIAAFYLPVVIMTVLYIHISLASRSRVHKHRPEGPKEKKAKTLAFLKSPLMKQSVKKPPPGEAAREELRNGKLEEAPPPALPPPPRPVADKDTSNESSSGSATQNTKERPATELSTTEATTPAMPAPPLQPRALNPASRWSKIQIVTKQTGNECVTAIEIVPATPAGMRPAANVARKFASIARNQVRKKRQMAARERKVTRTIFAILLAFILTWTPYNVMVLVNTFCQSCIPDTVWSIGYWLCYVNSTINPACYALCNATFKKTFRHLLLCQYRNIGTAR
In words: mAChR M4 cell-based functional assay: calcium mobilization (Fluo-4, FDSS), potentiation of EC20 acetylcholine response in hM4-Gqi5 CHO-K1 cells. The following applies: human M4; for Emax at 30 µM: CHO-K1, % ACh maximum at 30 μM; for EC50: potentiation of EC20 acetylcholine response, calcium mobilization. Summed up:
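Readout is the fluorescence-ratio rise at 1 Hz on FDSS, with PAM activity taken as concentration-dependent enhancement of the EC20 acetylcholine response, fitted four-parameter for EC50/Emax. hM4-Gqi5 CHO-K1 cells carried Fluo-4 AM dye; test compounds (11 points, 1:3) preceded EC20 acetylcholine additions at 144 s and 230 s.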

For `Cc1cc(=O)n2nc(N3CCc4ncc(-c5cc(F)cc(F)c5F)cc4C3)c(C)cc2n1` [Compound 1-253, 2,8-dimethyl-7-(3-(2,3,5-trifluorophenyl)-7,8-dihydro-1,6-naphthyridin-6(5H)-yl)-4H-pyrimido[1,2-b] pyridazin-4-one], the Emax at 30 µM is 54% and the concentration for a half-maximal effect (EC50) was found to be 2330 nM. As for `Cc1cc(=O)n2nc(N3CCc4ncc(-c5ccc(N(C)C)nc5)cc4C3)c(C)c(C)c2n1` [Compound 1-121, 7-(3-(6-(dimethylamino)pyridin-3-yl)-7,8-dihydro-1,6-naphthyridin-6(5H)-yl)-2,8,9-trimethyl-4H-pyrimido[1,2-b]pyridazin-4-one], the Emax at 30 µM was 83% and the EC50 worked out at 722 nM.

Consider `COCc1cc(=O)n2nc(N3CCc4ncc(-c5ccncc5)cc4C3)c(C)cc2n1` [Compound 1-362, 2-(methoxymethyl)-8-methyl-7-(3-(pyridin-4-yl)-7,8-dihydro-1,6-naphthyridin-6(5H)-yl)-4H-pyrimido[1,2-b] pyridazin-4-one], for which the Emax at 30 µM amounted to 78% and the EC50 was 337 nM. As to `Cc1cc(=O)n2nc(N3CCc4ncc(-c5cn6ccnc6cc5C)cc4C3)c(C)cc2n1` [Compound 1-217, 2,8-dimethyl-7-(3-(7-methylimidazo[1,2-a]pyridin-6-yl)-7,8-dihydro-1,6-naphthyridin-6(5H)-yl)-4H-pyrimido[1,2-b]pyridazin-4-one], the Emax at 30 µM was determined as 60% and the EC50 is 655 nM.

Take `Cc1cc2nccc(=O)n2nc1N1CCc2ncc(-n3cccn3)cc2C1` [Compound 2-6, 7-(3-(1H-pyrazol-1-yl)-7,8-dihydro-1,6-naphthyridin-6(5H)-yl)-8-methyl-4H-pyrimido[1,2-b]pyridazin-4-one]: the Emax at 30 µM is 65% and the EC50 stood at 1170 nM. `Cc1cc(=O)n2nc(N3CCc4ncc(-c5cnn6ccccc56)cc4C3)c(C)c(C)c2n1` [Compound 1-181, 2,8,9-trimethyl-7-(3-(pyrazolo[1,5-a]pyridin-3-yl)-7,8-dihydro-1,6-naphthyridin-6(5H)-yl)-4H-pyrimido[1,2-b]pyridazin-4-one]: the Emax at 30 µM amounted to 95% and the EC50 amounted to 648 nM. The corresponding values for `Cc1cc2nc(C(F)F)cc(=O)n2nc1N1CCc2ncc(N3CCOC(C)(C)C3)cc2C1` [Compound 2-24, 2-(difluoromethyl)-7-(3-(2,2-dimethylmorpholino)-7,8-dihydro-1,6-naphthyridin-6(5H)-yl)-8-methyl-4H-pyrimido[1,2-b]pyridazin-4-one] are 95% and 51 nM. In the same order, the values of `COCc1cc(=O)n2nc(N3CCc4ncc(-c5cnc(Cl)cc5C)cc4C3)c(C)c(C)c2n1` [Compound 1-379, 7-(3-(6-chloro-4-methylpyridin-3-yl)-7,8-dihydro-1,6-naphthyridin-6(5H)-yl)-2-(methoxymethyl)-8,9-dimethyl-4H-pyrimido[1,2-b]pyridazin-4-one] are 109% and 357 nM.

Regarding `Cc1cc(=O)n2nc(N3CCc4ncc(-c5cccnc5)cc4C3)c(C)cc2n1` [Compound 1-290, 2,8-dimethyl-7-(3-(pyridin-3-yl)-7,8-dihydro-1,6-naphthyridin-6(5H)-yl)-4H-pyrimido[1,2-b]pyridazin-4-one], the Emax at 30 µM turned out to be 90% and the EC50 was 375 nM.

Consider `Cc1cc(N)ncc1-c1cnc2c(c1)CN(c1nn3c(=O)ccnc3cc1C)CC2` [Compound 1-404, 7-(3-(6-amino-4-methylpyridin-3-yl)-7,8-dihydro-1,6-naphthyridin-6(5H)-yl)-8-methyl-4H-pyrimido[1,2-b]pyridazin-4-one], for which the maximal effect (Emax) at 30 µM is 97% and the EC50 was 165 nM. In the case of `Cc1ccc(-c2cnc3c(c2)CN(c2nn4c(=O)cc(C(C)C)nc4c(C)c2C)CC3)cn1` [Compound 1-108, 2-isopropyl-8,9-dimethyl-7-(3-(6-methylpyridin-3-yl)-7,8-dihydro-1,6-naphthyridin-6(5H)-yl)-4H-pyrimido[1,2-b]pyridazin-4-one], the Emax at 30 µM is 94% and the EC50 turned out to be 158 nM. Regarding `Cc1c(C2CC2)c(N2CCc3ncc(C(F)(F)F)cc3C2)nn2c(=O)ccnc12` [Compound 1-111, 8-cyclopropyl-9-methyl-7-(3-(trifluoromethyl)-7,8-dihydro-1,6-naphthyridin-6(5H)-yl)-4H-pyrimido[1,2-b]pyridazin-4-one], the Emax at 30 µM came to 61% and the EC50 is 2450 nM. For `Cc1ccc(-c2cnc3c(c2)CN(c2nn4c(=O)c(C)c(C)nc4cc2C)CC3)cn1` [Compound 1-83, 2,3,8-trimethyl-7-(3-(6-methylpyridin-3-yl)-7,8-dihydro-1,6-naphthyridin-6(5H)-yl)-4H-pyrimido[1,2-b]pyridazin-4-one], the maximal response (Emax) at 30 µM worked out at 87% and the EC50 turned out to be 209 nM.

With `Cc1cc(=O)n2nc(N3CCc4ncc(N5CCCn6nc(C)cc65)cc4C3)c(C)cc2n1` [Compound 2-21, 2,8-dimethyl-7-(3-(2-methyl-6,7-dihydropyrazolo[1,5-a]pyrimidin-4(5H)-yl)-7,8-dihydro-1,6-naphthyridin-6(5H)-yl)-4H-pyrimido[1,2-b]pyridazin-4-one], the Emax at 30 µM came to 87% and the EC50 was found to be 37 nM. With `Cc1cc(=O)n2nc(N3CCc4ncc(-c5cnn(C6CC6)c5)cc4C3)c(C)cc2n1` [Compound 1-32, 7-(3-(1-cyclopropyl-1H-pyrazol-4-yl)-7,8-dihydro-1,6-naphthyridin-6(5H)-yl)-2,8-dimethyl-4H-pyrimido[1,2-b]pyridazin-4-one], the Emax at 30 µM turned out to be 76% and the EC50 came to 405 nM.

Regarding `Cc1ncccc1-c1cnc2c(c1)CN(c1nn3c(=O)cc(C(F)F)nc3c(C)c1C)CC2` [Compound 1-115, 2-(difluoromethyl)-8,9-dimethyl-7-(3-(2-methylpyridin-3-yl)-7,8-dihydro-1,6-naphthyridin-6(5H)-yl)-4H-pyrimido[1,2-b]pyridazin-4-one], the Emax at 30 µM was determined as 91% and the EC50 turned out to be 313 nM. Turning to `Cc1cc2nccc(=O)n2nc1N1CCc2ncc(Nc3cccc(F)n3)cc2C1` [Compound 2-107, 7-(3-((6-fluoropyridin-2-yl)amino)-7,8-dihydro-1,6-naphthyridin-6(5H)-yl)-8-methyl-4H-pyrimido[1,2-b]pyridazin-4-one], the Emax at 30 µM stood at 79% and the EC50 came to 437 nM. Turning to `Cc1cc(=O)n2nc(N3CCc4ncc(-c5ccc(C)c(F)c5)cc4C3)c(C)c(C)c2n1` [Compound 1-196, 7-(3-(3-fluoro-4-methylphenyl)-7,8-dihydro-1,6-naphthyridin-6(5H)-yl)-2,8,9-trimethyl-4H-pyrimido[1,2-b]pyridazin-4-one], the Emax at 30 µM came out at 80% and the EC50 worked out at 1130 nM. In the same order, the values of `Cc1c(N2CCc3ncc(N4C(=O)Cc5ncccc54)cc3C2)nn2c(=O)ccnc2c1C` [Compound 2-149, 8,9-dimethyl-7-(3-(2-oxo-2,3-dihydro-1H-pyrrolo[3,2-b]pyridin-1-yl)-7,8-dihydro-1,6-naphthyridin-6(5H)-yl)-4H-pyrimido[1,2-b]pyridazin-4-one] are 50% and 1050 nM. For the compound `Cc1cc2nccc(=O)n2nc1N1CCc2ncc(-c3ccccc3C(C)(F)F)cc2C1` [Compound 1-433, 7-(3-(2-(1,1-difluoroethyl)phenyl)-7,8-dihydro-1,6-naphthyridin-6(5H)-yl)-8-methyl-4H-pyrimido[1,2-b]pyridazin-4-one], the Emax at 30 µM is 41% and the EC50 came out at 1250 nM. Consider `Cc1ccc(F)cc1-c1cnc2c(c1)CN(c1nn3c(=O)ccnc3cc1C)CC2` [Compound 1-432, 7-(3-(5-fluoro-2-methylphenyl)-7,8-dihydro-1,6-naphthyridin-6(5H)-yl)-8-methyl-4H-pyrimido [1,2-b]pyridazin-4-one], for which the Emax at 30 µM is 80% and the 50% effective concentration (EC50) stood at 63 nM. With `Cc1nc(S(=O)(=O)Nc2cnc3c(c2)CN(c2nn4c(=O)ccnc4cc2C)CC3)cs1` [Compound 2-119, 2-methyl-N-(6-(8-methyl-4-oxo-4H-pyrimido[1,2-b]pyridazin-7-yl)-5,6,7,8-tetrahydro-1,6-naphthyridin-3-yl)thiazole-4-sulfonamide], the Emax at 30 µM was 31%. Consider `Cc1cc(=O)n2nc(N3CCc4ncc(N5CCO[C@H](C)C5)cc4C3)c(C)cc2n1` [Compound 2-18, (R)-2,8-dimethyl-7-(3-(2-methylmorpholino)-7,8-dihydro-1,6-naphthyridin-6(5H)-yl)-4H-pyrimido[1,2-b]pyridazin-4-one], for which the maximal effect (Emax) at 30 µM came out at 92% and the EC50 came out at 80 nM. On to `Cc1cc(=O)n2nc(N3CCc4ncc(-c5ccccc5C(C)C)cc4C3)c(C)c(C)c2n1` [Compound 1-247, 7-(3-(2-isopropylphenyl)-7,8-dihydro-1,6-naphthyridin-6(5H)-yl)-2,8,9-trimethyl-4H-pyrimido[1,2-b]pyridazin-4-one], for which the Emax at 30 µM is 55% and the EC50 is 1030 nM.
